Measurements from patent publication US20060204957A1, “Mta1s, a steriod hormone receptor corepressor” (priority 2002, published 2006).

Assays:
[1] = molecular target: T1, ERα (Homo sapiens, UniProt P03372); details: yeast AH109 two-hybrid
T1 sequence (P03372 1-536): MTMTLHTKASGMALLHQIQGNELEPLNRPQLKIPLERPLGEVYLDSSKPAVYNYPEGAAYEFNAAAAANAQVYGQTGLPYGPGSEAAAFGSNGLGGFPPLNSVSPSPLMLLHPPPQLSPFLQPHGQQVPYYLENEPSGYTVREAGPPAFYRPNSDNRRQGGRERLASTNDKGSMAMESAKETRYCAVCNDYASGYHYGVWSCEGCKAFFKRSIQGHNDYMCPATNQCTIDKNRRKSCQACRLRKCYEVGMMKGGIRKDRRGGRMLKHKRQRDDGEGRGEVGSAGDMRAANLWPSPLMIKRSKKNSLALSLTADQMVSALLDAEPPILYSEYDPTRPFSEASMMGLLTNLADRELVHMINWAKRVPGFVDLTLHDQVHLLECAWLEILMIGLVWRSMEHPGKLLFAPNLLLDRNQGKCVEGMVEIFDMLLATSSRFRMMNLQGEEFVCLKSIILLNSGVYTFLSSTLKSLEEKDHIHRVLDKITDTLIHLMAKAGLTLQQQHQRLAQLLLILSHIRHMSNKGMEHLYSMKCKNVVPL
T1 sequence (Q13330 1-429 isoform Q13330-2 partner limits assumed): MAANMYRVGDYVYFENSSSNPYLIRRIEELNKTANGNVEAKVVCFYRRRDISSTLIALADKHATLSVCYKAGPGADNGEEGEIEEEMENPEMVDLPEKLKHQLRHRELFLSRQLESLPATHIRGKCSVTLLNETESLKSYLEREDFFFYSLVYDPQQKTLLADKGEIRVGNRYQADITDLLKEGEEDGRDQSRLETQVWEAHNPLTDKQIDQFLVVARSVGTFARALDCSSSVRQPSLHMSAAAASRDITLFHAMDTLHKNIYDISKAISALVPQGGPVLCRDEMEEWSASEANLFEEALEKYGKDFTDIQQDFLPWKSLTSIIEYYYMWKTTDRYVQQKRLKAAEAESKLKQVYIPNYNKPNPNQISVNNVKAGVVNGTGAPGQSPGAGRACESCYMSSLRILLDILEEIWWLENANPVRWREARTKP

[2] = test system: ZR-75R cells; assay: Growth of ZR-75R cells in monolayer culture; type: cell-based, human
From the text: FIGS. 11A-11E. MTA1s may stimulate aggressive phenotypes in breast cancer cells. FIG. 11A illustrates an example of MTA1s overexpression inhibiting PRE-driven but not RARE-driven transcription. FIG. […] illustrates the Growth-rate of ZR/pcDNA or ZR/MTA1s cells in monolayer culture in the presence of E2 alone or with ICI 182780 (10^−9 M for 4 days). FIG. 11C show an exemplary effect of MTA1s expression on anchorage independent growth of ZR/pcDNA and ZR/MTA1s cells grown in 10% serum in the presence or absence of ICI 182780 (10^−9 M) or 4HT (10^−8 M) for 14 days. […] FIG. 11E illustrates that MTA1s may induce tumorigenesis of breast cancer cells. 5×10^6 cells were subcutaneously inoculated in the athymic nude mice (n=10), and tumor volumes at day 21 were recorded.

[3] = test system: ER; assay: Confocal localization of ER in ZR-75R clones after estradiol; type: cell-based, human
Method: FIGS. 3A-3H. MTA1s typically localizes in the cytoplasm and interacts with ER. FIG. 3A illustrates an example of confocal microscopy of MCF-7 cells transiently transfected with T7-tagged MTA1 or MTA1s constructs. FIG. 3B illustrates exemplary expression of T7-MTA1s in ZR75 clones. FIG. 3C illustrates exemplary nuclear and cytoplasmic fractions that were assessed by immunoblotting with the indicated antibodies. […] FIG. 3F illustrates exemplary GST pull-down assays. […] FIG. 3H illustrates an example of expression of MTA1s and ERα in indicated cells by confocal microscopy.
The cellular localization of T7-MTA1s, and ER was determined using indirect immunofluorescence as described in Mazumdar et al., 2001, herein incorporated by reference. Cells were treated with or without anti-T7 mAb or ER Ab followed by 546-Alexa-labeled goat anti-mouse Ab or 488-Alexa.

[4] = test system: PRE-mediated transcription; assay: PRE-mediated transcription in ZR-75R cells; type: cell-based, human; details: MTA1s-overexpressing ZR-75R cells
Method: Transfection was performed using a Fugene-6 kit (Roche Biochemical, New Jersey) as per the manufacturer's instructions. Cells were transiently cotransfected with a reporter construct and (β-galactosidase, and assayed for luciferase activity as described.

`C[C@]12CC[C@@H]3c4ccc(O)cc4C[C@@H](CCCCCCCCC[S+]([O-])CCCC(F)(F)C(F)(F)F)[C@H]3[C@@H]1CC[C@@H]2O` (stereo partly drawn) [ICI 182780] was tested, and the “effect on interaction between ERα and MTA1s” value [1] was “failed to block”.

With `C[C@]12CC[C@@H]3c4ccc(O)cc4CC[C@H]3[C@@H]1CC[C@@H]2O` [estradiol, 17β-estradiol] the cell growth response ([2]; ZR-75R cells expressing MTA1s) was “did not respond”, the cell growth ([2]; ZR-75R cells expressing control vector) was “stimulated” and the “redistribution of ER to the nucleus” value ([3]; ZR-75R/vector cells) was “rapidly redistributed the ER to the nucleus”. For the same molecule, the “cells in which ER was not redistributed to the nucleus” value ([3]; estradiol-activated ZR-75R/MTA1s cells) was “over 90%”.

With `CC(=O)[C@H]1CC[C@H]2[C@@H]3CCC4=CC(=O)CC[C@]4(C)[C@H]3CC[C@]12C` [progesterone] the “stimulation of PRE-mediated transcription” value [4] was “failed to stimulate”.
